Patent publication US8436012B2, “Imidazopyridin-2-one derivatives” (Daiichi Sankyo Company, Limited, priority 2008, dated 2013)
Values belong to the compound of their own block, whether it stands above or below them.

Legend:
WM-266-4 cells = test: Cell Proliferation Inhibitory Test; assay type: cell-based; conditions: Homo sapiens, 72 h, cultured three days with test compound, MTT, read-out: 50% cell proliferation inhibitory activity (GI50 value)
Outline: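 Cells cultured overnight, then exposed to serially diluted compound for three days; cell amount read by MTT. GI50 solved from 100×[(T−T0)/(C−T0)]=50, with T0 the value at time of compound addition and C the untreated three-day control.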

human mTOR = target: T1, human mTOR (Homo sapiens, UniProt P42345); test: mTOR Kinase Activity Inhibition Test; assay type: biochemical; conditions: His-tagged mTOR (1362C), biotinylated peptide substrate, ATP, 3 hours at room temperature, fluorescence resonance energy transfer 665 nm/620 nm; read-out: IC50 value of mTOR enzyme inhibitory activity
T1 construct: the portion corresponding to 1362-2549aa at the C terminus of human mTOR; made in house
Outline: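 Purified His-tagged human mTOR (1362–2549aa, from HEK293) was used with biotinylated peptide (8 μg/mL in enzyme solution) in HEPES pH 7.5 with 20 mM MnCl2. Compounds were diluted in 20 μM ATP solution, and the reaction ran 3 h at RT. Phospho-S6K(Thr389) HTRF was read as the 665/620 nm ratio, and IC50 came from % inhibition versus controls.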

T1 sequence (P42345 1362-2549): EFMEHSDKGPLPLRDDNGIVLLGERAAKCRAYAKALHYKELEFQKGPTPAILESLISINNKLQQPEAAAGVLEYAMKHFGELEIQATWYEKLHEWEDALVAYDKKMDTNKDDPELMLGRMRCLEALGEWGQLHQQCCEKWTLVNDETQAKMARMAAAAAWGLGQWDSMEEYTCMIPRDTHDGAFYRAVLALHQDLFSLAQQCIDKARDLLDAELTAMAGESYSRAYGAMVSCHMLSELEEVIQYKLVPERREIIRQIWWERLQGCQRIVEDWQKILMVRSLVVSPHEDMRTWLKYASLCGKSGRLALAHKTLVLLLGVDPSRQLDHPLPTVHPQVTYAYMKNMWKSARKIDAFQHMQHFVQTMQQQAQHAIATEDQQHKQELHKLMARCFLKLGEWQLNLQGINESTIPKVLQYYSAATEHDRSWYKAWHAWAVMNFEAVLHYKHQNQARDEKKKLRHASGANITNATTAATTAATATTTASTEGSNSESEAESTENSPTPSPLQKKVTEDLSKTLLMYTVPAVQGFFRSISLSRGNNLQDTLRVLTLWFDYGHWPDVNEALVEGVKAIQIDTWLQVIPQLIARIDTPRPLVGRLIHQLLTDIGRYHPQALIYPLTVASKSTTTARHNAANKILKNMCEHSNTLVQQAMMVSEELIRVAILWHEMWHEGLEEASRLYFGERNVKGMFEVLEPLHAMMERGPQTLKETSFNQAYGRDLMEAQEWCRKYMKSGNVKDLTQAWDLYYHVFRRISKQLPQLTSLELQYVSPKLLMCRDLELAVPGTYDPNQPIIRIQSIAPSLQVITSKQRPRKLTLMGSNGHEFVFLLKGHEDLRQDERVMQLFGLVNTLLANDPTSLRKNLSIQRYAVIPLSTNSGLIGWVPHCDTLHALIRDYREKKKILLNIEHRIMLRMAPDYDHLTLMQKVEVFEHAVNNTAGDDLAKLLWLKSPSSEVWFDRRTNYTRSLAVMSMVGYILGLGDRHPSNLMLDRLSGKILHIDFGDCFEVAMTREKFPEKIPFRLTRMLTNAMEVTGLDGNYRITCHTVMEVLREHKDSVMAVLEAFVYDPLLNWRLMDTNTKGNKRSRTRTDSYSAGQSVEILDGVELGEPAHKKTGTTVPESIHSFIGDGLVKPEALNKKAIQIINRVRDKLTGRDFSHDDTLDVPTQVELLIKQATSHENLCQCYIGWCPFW

Compound: O=c1[nH]c2ncc(-c3cc4ccccc4[nH]3)cc2n1CC1CCOCC1 [Example 23, 6-(1H-Indol-2-yl)-1-(tetrahydro-2H-pyran-4-ylmethyl)-1,3-dihydro-2H-imidazo[4,5-b]pyridin-2-one]
- GI50 (WM-266-4 cells): < 3000 nM
- IC50 (human mTOR): < 50 nM

Compound: O=c1[nH]c2ncc(-c3cnc4[nH]cc(Cl)c4c3)cc2n1C[C@H]1COCCO1 [Example 41, 6-(3-Chloro-1H-pyrrolo[2,3-b]pyridin-5-yl)-1-[(2S)-1,4-dioxan-2-ylmethyl]-1,3-dihydro-imidazo[4,5-b]pyridin-2-one]
- GI50 (WM-266-4 cells): < 3000 nM
- IC50 (human mTOR): < 50 nM

Compound: CO[C@@H]1CC[C@H](Cn2c(=O)[nH]c3ncc(-c4cnc5[nH]cc(Cl)c5c4C)cc32)OC1 [Example 148, 2,6-Anhydro-1-[6-(3-chloro-4-methyl-1H-pyrrolo[2,3-b]pyridin-5-yl)-2-oxo-2,3-dihydro-1H-imidazo[4,5-b]pyridin-1-yl]-1,3,4-trideoxy-5-O-methyl-L-threo-hexitol]
- GI50 (WM-266-4 cells): < 3000 nM
- IC50 (human mTOR): < 50 nM

Compound: O=c1[nH]c2ncc(-c3cnc4[nH]ccc4c3)cc2n1CC1CCCOC1 (centres unmarked) [Example 32, 6-(1H-Pyrrolo[2,3-b]pyridin-5-yl)-1-(tetrahydro-2H-pyran-3-ylmethyl)-1,3-dihydro-2H-imidazo[4,5-b]pyridin-2-one]
- GI50 (WM-266-4 cells): < 3000 nM
- IC50 (human mTOR): < 50 nM

Compound: CO[C@H]1COC[C@H]1Cn1c(=O)[nH]c2ncc(-c3cnc4[nH]ccc4c3)cc21 (racemic) [Example 63]
- GI50 (WM-266-4 cells): < 3000 nM
- IC50 (human mTOR): < 50 nM

Compound: O=c1[nH]c2ncc(-c3ccc4[nH]ccc4c3F)cc2n1CC1CCOCC1 [Example 27, 6-(4-Fluoro-1H-indol-5-yl)-1-(tetrahydro-2H-pyran-4-ylmethyl)-1,3-dihydro-2H-imidazo[4,5-b]pyridin-2-one]
- GI50 (WM-266-4 cells): < 3000 nM
- IC50 (human mTOR): < 50 nM

Compound: O=c1[nH]c2ncc(-c3cnc4[nH]ccc4c3)cc2n1CCN1CCNCC1 [Example 57, 1-[2-piperazin-1-ylethyl]-6-(1H-pyrrolo[2,3-b]pyridin-5-yl)-1,3-dihydro-2H-imidazo[4,5-b]pyridin-2-one]
- GI50 (WM-266-4 cells): 3000 to 25000 nM
- IC50 (human mTOR): 50 to 100 nM

Compound: O=c1[nH]c2ncc(-c3cnc4[nH]ccc4c3)cc2n1CC1CCOC1 (centres unmarked) [Example 107, 6-(1H-Pyrrolo[2,3-b]pyridin-5-yl)-1-(tetrahydrofuran-3-ylmethyl)-1,3-dihydro-2H-imidazo[4,5-b]pyridin-2-one]
- GI50 (WM-266-4 cells): < 3000 nM
- IC50 (human mTOR): < 50 nM

Compound: CO[C@H]1CCO[C@@H](Cn2c(=O)[nH]c3ncc(-c4cnc5[nH]cc(Cl)c5c4C)cc32)C1 [Example 152, 2,6-Anhydro-1-[6-(3-chloro-4-methyl-1H-pyrrolo[2,3-b]pyridin-5-yl)-2-oxo-2,3-dihydro-1H-imidazo[4,5-b]pyridin-1-yl]-1,3,5-trideoxy-4-O-methyl-L-threo-hexitol]
- GI50 (WM-266-4 cells): < 3000 nM
- IC50 (human mTOR): < 50 nM

Compound: O=c1[nH]c2ncc(-c3cc4cc[nH]c4cc3F)cc2n1CC1CCOCC1 [Example 28, 6-(6-Fluoro-1H-indol-5-yl)-1-(tetrahydro-2H-pyran-4-ylmethyl)-1,3-dihydro-2H-imidazo[4,5-b]pyridin-2-one]
- GI50 (WM-266-4 cells): < 3000 nM
- IC50 (human mTOR): < 50 nM

Compound: Cc1nc2[nH]c(=O)n(C[C@H]3COCCO3)c2cc1-c1cnc2[nH]cc(F)c2c1 [Example 119, 1-[(2S)-1,4-Dioxan-2-ylmethyl]-6-(3-fluoro-1H-pyrrolo[2,3-b]pyridin-5-yl)-5-methyl-1,3-dihydro-2H-imidazo[4,5-b]pyridin-2-one]
- GI50 (WM-266-4 cells): < 3000 nM
- IC50 (human mTOR): < 50 nM

Compound: COCC1COC[C@H](Cn2c(=O)[nH]c3ncc(-c4cnc5[nH]ccc5c4C)cc32)O1 (stereo partly drawn) [Example 153, 1-{[(2S)-6-(Methoxymethyl)-1,4-dioxan-2-yl]methyl}-6-(4-methyl-1H-pyrrolo[2,3-b]pyridin-5-yl)-1,3-dihydro-2H-imidazo[4,5-b]pyridin-2-one]
- GI50 (WM-266-4 cells): < 3000 nM
- IC50 (human mTOR): < 50 nM

More lines, main results first:

- IC50 (human mTOR): < 50 nM
Compound: CO[C@@H]1CCC[C@@H](Cn2c(=O)[nH]c3ncc(-c4cnc5[nH]ccc5c4)cc32)C1 (racemic) [Example 104, 1-{[trans-3-Methoxycyclohexyl]methyl}-6-(1H-pyrrolo[2,3-b]pyridin-5-yl)-1,3-dihydro-2H-imidazo[4,5-b]pyridin-2-one]
- GI50 (WM-266-4 cells): < 3000 nM

- IC50 (human mTOR): < 50 nM
Compound: Cc1c[nH]c2ncc(-c3cnc4[nH]c(=O)n(C[C@H]5C[C@@H](O)CCO5)c4c3)c(C)c12 [Example 150, 2,6-Anhydro-1,3,5-trideoxy-1-[6-(3,4-dimethyl-1H-pyrrolo[2,3-b]pyridin-5-yl)-2-oxo-2,3-dihydro-1H-imidazo[4,5-b]pyridin-1-yl]-L-threo-hexitol]
- GI50 (WM-266-4 cells): < 3000 nM

- IC50 (human mTOR): < 50 nM
Compound: CC1(Cn2c(=O)[nH]c3ncc(-c4cnc5[nH]ccc5c4)cc32)CCOCC1 [Example 25, 1-[(4-Methyltetrahydro-2H-pyran-4-yl)methyl]-6-(1H-pyrrolo[2,3-b]pyridin-5-yl)-1,3-dihydro-2H-imidazo[4,5-b]pyridin-2-one]
- GI50 (WM-266-4 cells): < 3000 nM

- IC50 (human mTOR): < 50 nM
Compound: O=c1[nH]c2ncc(-c3cnc4[nH]ccc4c3)cc2n1CCN1CCOCC1 [Example 55, 1-(2-Morpholin-4-ylethyl)-6-(1H-pyrrolo[2,3-b]pyridin-5-yl)-1,3-dihydro-2H-imidazo[4,5-b]pyridin-2-one]
- GI50 (WM-266-4 cells): < 3000 nM

- IC50 (human mTOR): 100 to 5000 nM
Compound: CN(C)Cc1c[nH]c2ncc(-c3cnc4[nH]c(=O)n(CC5CCOCC5)c4c3)cc12 [Example 89, 6-{3-[(Dimethylamino)methyl]-1H-pyrrolo[2,3-b]pyridin-5-yl}-1-(tetrahydro-2H-pyran-4-ylmethyl)-1,3-dihydro-2H-imidazo[4,5-b]pyridin-2-one]
- GI50 (WM-266-4 cells): 3000 to 25000 nM

- IC50 (human mTOR): < 50 nM
Compound: Cc1nc2[nH]ccc2cc1-c1cnc2[nH]c(=O)n(C[C@H]3COCCO3)c2c1 [Example 129, 1-[(2S)-1,4-Dioxan-2-ylmethyl]-6-(6-methyl-1H-pyrrolo[2,3-b]pyridin-5-yl)-1,3-dihydro-2H-imidazo[4,5-b]pyridin-2-one]
- GI50 (WM-266-4 cells): < 3000 nM

- IC50 (human mTOR): < 50 nM
Compound: Cc1c(-c2cnc3[nH]c(=O)n(C[C@H]4CC[C@@H](O)CO4)c3c2)cnc2[nH]cc(Cl)c12 [Example 145, 2,6-Anhydro-1-[6-(3-chloro-4-methyl-1H-pyrrolo[2,3-b]pyridin-5-yl)-2-oxo-2,3-dihydro-1H-imidazo[4,5-b]pyridin-1-yl]-1,3,4-trideoxy-L-threo-hexitol]
- GI50 (WM-266-4 cells): < 3000 nM

- IC50 (human mTOR): < 50 nM
Compound: CO[C@H]1CCO[C@@H](Cn2c(=O)[nH]c3ncc(-c4cnc5[nH]ccc5c4)cc32)C1 [Example 137, 2,6-Anhydro-1,3,5-trideoxy-4-O-methyl-1-[2-oxo-6-(1H-pyrrolo[2,3-b]pyridin-5-yl)-2,3-dihydro-1H-imidazo[4,5-b]pyridin-1-yl]-L-threo-hexitol]
- GI50 (WM-266-4 cells): < 3000 nM

- IC50 (human mTOR): < 50 nM
Compound: O=c1[nH]c2ncc(-c3cc(F)c4[nH]ccc4c3)cc2n1CC1CCOCC1 [Example 29, 6-(7-Fluoro-1H-indol-5-yl)-1-(tetrahydro-2H-pyran-4-ylmethyl)-1,3-dihydro-2H-imidazo[4,5-b]pyridin-2-one]
- GI50 (WM-266-4 cells): < 3000 nM

- IC50 (human mTOR): 100 to 5000 nM
Compound: CN1CCC(Cn2c(=O)[nH]c3ncc(-c4cnc5[nH]ccc5c4)cc32)CC1 [Example 56, 1-[(1-Methylpiperidin-4-yl)methyl]-6-(1H-pyrrolo[2,3-b]pyridin-5-yl)-1,3-dihydro-2H-imidazo[4,5-b]pyridin-2-one]
- GI50 (WM-266-4 cells): 3000 to 25000 nM

- IC50 (human mTOR): < 50 nM
Compound: CO[C@@H]1CC[C@H](Cn2c(=O)[nH]c3ncc(-c4cnc5[nH]ccc5c4)cc32)OC1 [Example 136, 2,6-Anhydro-1,3,4-trideoxy-5-O-methyl-1-[2-oxo-6-(1H-pyrrolo[2,3-b]pyridin-5-yl)-2,3-dihydro-1H-imidazo[4,5-b]pyridin-1-yl]-L-threo-hexitol]
- GI50 (WM-266-4 cells): < 3000 nM

- IC50 (human mTOR): < 50 nM
Compound: O=c1[nH]c2ncc(-c3cc4cc[nH]c4nn3)cc2n1CC1CCOCC1 [Example 76, 6-(7H-Pyrrolo[2,3-c]pyridazin-3-yl)-1-(tetrahydro-2H-pyran-4-ylmethyl)-1,3-dihydro-2H-imidazo[4,5-b]pyridin-2-one]
- GI50 (WM-266-4 cells): 3000 to 25000 nM

- IC50 (human mTOR): < 50 nM
Compound: O=c1[nH]c2ncc(-c3cnc4[nH]ccc4c3)cc2n1CC1COCCO1 (centres unmarked) [Example 38, 1-(1,4-Dioxan-2-ylmethyl)-6-(1H-pyrrolo[2,3-b]pyridin-5-yl)-1,3-dihydro-2H-imidazo[4,5-b]pyridin-2-one]
- GI50 (WM-266-4 cells): < 3000 nM

- IC50 (human mTOR): < 50 nM
Compound: CC(=O)N1CCN(CCn2c(=O)[nH]c3ncc(-c4cnc5[nH]ccc5c4)cc32)CC1 [Example 59, 1-[2-(4-Acetylpiperazin-1-yl)ethyl]-6-(1H-pyrrolo[2,3-b]pyridin-5-yl)-1,3-dihydro-2H-imidazo[4,5-b]pyridin-2-one]
- GI50 (WM-266-4 cells): 3000 to 25000 nM

- IC50 (human mTOR): < 50 nM
Compound: O=c1[nH]c2ncc(-c3cc4cc[nH]c4nc3Cl)cc2n1C[C@H]1COCCO1 [Example 127, 6-(6-Chloro-1H-pyrrolo[2,3-b]pyridin-5-yl)-1-[(2S)-1,4-dioxan-2-ylmethyl]-1,3-dihydro-2H-imidazo[4,5-b]pyridin-2-one]
- GI50 (WM-266-4 cells): < 3000 nM

- IC50 (human mTOR): < 50 nM
Compound: O=c1[nH]c2ncc(-c3cnc4ccccc4c3)cc2n1CC1CCOCC1 [Example 5, 6-Quinolin-3-yl-1-(tetrahydro-2H-pyran-4-ylmethyl)-1,3-dihydro-2H-imidazo[4,5-b]pyridin-2-one]
- GI50 (WM-266-4 cells): < 3000 nM
